These results are taken from patent publication US20250312309A1, “ALLYL-AND PROPARGYLAMINE-TYPE PHENE[…] T[…] TREATING MEDICAL DISORDERS” (Mind Medicine, Inc., priority 2023, published 2025).

Test [1] concerns the target T1, human 5-HT2A receptor (Homo sapiens, UniProt P28223).
T1 construct: expressed in transfected cells; host or cells: NIH/3T3 cells stably expressing the receptor
The experiment in a line: 5-HT2A receptor activation assessment (IP1 accumulation, NIH/3T3 cells). The test is classed as cell-based. To be noted: for 5-HT2A receptor activation, result in words: FIG. 10 / FIG. 11.
Procedure: 5-HT2A receptor activation assessment. Activation of the 5-HT2A receptor was assessed by measuring the accumulation of inositol monophosphate 1 (IP1) using the Cisbio IP-One Gq Kit (Cisbio Bioassays SAS, Codolet Cedex, France) according to the manufacturer's protocol. In brief, NIH/3T3 cells stably expressing the human 5-HT2A receptor were seeded at a density of 2,500 cells per well in a 384-well plate in Opti-MEM™ I medium (Gibco, ThermoFisher, Life Technologies Europe B.V., Zug, Switzerland). Then, test compounds were added, and the plate was incubated for 90 minutes at 37° C., followed by 60 minutes incubation with Anti-IP1-Cryptate and IP1-d2 at room temperature. Stimulated IP-1 formation was determined by Homogeneous Time-Resolved Fluorescence (HTRF) measurement on a BioTek Synergy H1 Multimode Reader (Agilent Technologies (Schweiz) AG, Basel, Switzerland) and EC50 values were derived from the concentration-response curves using nonlinear regression.

Test [2] addresses T2, human serotonin (5-HT) transporter (hSERT) (Homo sapiens, UniProt P31645).
T2 construct: expressed in transfected cells; host or cells: HEK 293 cells (Invitrogen), stably transfected
As to the kind of experiment: Serotonin uptake transport inhibition ([3H]5-HT uptake in hSERT-transfected HEK 293 cells). To be noted: screening at 1 μM and 10 μM (n=3), FIG. 9. The test is classed as cell-based.
Procedure: Serotonin uptake transport inhibition. […] Briefly, cells were cultured in Dulbecco's modified Eagle's medium (DMEM; Gibco, Life Technologies, Zug, Switzerland) with 10% fetal bovine serum (Gibco) and 250 mg/mL Geneticin (Gibco) to 70-90% confluence, detached, and then resuspended (3×10^6 cells/mL) in Krebs-Ringer Bicarbonate Buffer (Sigma-Aldrich, Buchs, Switzerland). The cell suspension (100 μL) was incubated with 25 μL buffer containing the test compounds, vehicle control, or 10 μM fluoxetine (SERT-specific inhibitor) for 10 minutes in a round bottom 96-well plate at room temperature by shaking at 450 rotations per minute on a rotary shaker. To initiate uptake transport, 50 μL of [^3H] […] Thereafter, 100 μL of the cell suspension was transferred into 500 μL microcentrifuge tubes that contained 50 μL of 3 M KOH and 200 μL silicon oil (1:1 mixture of silicon oil types AR 20 and AR 200; Sigma-Aldrich). The tubes were centrifuged for 3 minutes at 16,550 g to transport the cells through the silicone oil into the KOH. The tubes were frozen in liquid nitrogen and the cell pellet was then cut into 6 mL scintillation vials (PerkinElmer, Schwerzenbach, Switzerland) that contained 0.5 mL lysis buffer (0.05 M TRIS-HCl, 50 mM NaCl, 5 mM EDTA, and 1% NP-40 in water). The samples were shaken for 1 hour before the addition of 5 mL scintillation liquid (Ultimagold, Perkin Elmer). Serotonin uptake was quantified by liquid scintillation counting on a Packard Tri-Carb Liquid Scintillation Counter 1900 TR. Non-specific uptake in the presence of fluoxetine was subtracted from the total counts.

The conditions of test [3]: humans; Trachsel et al., 2013; cited from earlier work.
Test [4] deals with T2, human serotonin (5-HT) transporter (hSERT). As to conditions: read-out: IC50, SERT inhibition (Simmler et al., 2013); literature value in this assay; cited from earlier work.
Where [5] appears, read: NIH/3T3 cells expressing human 5-HT2A, FIG. 11, read-out: EC50, 5-HT2A receptor activation (IP1 formation).
[6] abbreviates: values for hydrochloride salts, read-out: IC50 values at the 5-HT2A receptor.

“Also recorded” adds a separate entry of the source. Structures can show the parent of a compound that is named as a salt. Where two headings read alike, the source gives them in different places.

T1 sequence (P28223 whole entry): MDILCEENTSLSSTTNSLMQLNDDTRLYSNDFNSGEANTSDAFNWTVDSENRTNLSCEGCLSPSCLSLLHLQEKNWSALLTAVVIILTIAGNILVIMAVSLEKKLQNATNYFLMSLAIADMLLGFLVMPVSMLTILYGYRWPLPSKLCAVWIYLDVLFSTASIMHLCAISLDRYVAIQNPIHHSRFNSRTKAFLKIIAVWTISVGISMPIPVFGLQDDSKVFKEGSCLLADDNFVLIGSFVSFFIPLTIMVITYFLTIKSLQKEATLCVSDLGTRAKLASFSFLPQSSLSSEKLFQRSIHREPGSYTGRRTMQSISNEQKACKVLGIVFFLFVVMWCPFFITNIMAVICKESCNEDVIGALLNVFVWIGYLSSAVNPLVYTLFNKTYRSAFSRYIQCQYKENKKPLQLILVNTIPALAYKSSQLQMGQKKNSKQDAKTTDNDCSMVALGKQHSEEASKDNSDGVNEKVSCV
T2 sequence (P31645 whole entry): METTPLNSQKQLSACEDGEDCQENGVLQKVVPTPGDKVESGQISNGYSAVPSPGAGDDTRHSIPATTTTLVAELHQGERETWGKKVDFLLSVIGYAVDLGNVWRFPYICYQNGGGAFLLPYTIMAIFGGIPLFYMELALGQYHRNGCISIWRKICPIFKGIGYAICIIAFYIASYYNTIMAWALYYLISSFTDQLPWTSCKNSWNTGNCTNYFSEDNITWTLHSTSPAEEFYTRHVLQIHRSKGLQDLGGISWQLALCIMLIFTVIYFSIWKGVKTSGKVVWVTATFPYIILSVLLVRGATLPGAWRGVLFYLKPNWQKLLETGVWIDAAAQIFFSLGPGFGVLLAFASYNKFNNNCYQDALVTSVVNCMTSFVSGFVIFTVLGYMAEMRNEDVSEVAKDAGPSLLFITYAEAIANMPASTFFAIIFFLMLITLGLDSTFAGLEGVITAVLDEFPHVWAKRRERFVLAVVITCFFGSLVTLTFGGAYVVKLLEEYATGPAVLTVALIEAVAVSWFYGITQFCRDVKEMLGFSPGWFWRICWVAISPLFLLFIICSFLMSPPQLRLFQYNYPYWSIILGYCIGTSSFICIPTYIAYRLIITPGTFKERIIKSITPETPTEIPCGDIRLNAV

Broadly, the IC50 is the concentration that gives 50% inhibition. Take “1-(Indol-3-yl) but-3-en-2-amine hemifumarate [DH-α-ET]”: the “efficacy at the 5-HT2A receptor, percentage of the maximal 5-HT response” value in test [1] (at 10 μM) is ~50%. Besides, in test [2] (read-out: IC50, inhibition of 5-HT uptake (SERT)), the IC50 is < 1000 nM. Moreover, the “IC50, inhibition of 5-HT uptake (SERT)” value in test [2] was “sub-micromolar”.
Consider `CCC(N)Cc1cc(OC)c(Br)cc1OC` (stereo not shown) [4C-B], for which the “active dose range (mixed psychedelic-energizing)” value in test [3] was 50 to 80 mg.
As to `C=C(c1ccc2c(c1)OCO2)C(C)NC.Cl` (stereo not shown) [BME-MDMA, 2-(1,3-Benzodioxol-5-yl)-3-(methylamino) butene hydrochloride], the “5-HT2A receptor activation, result in words” value (shortened to “5-HT2A receptor activation”) in test [1] is on record as “weaker activation efficacy”.
As for `C#CC(N)Cc1cc(OC)c(Br)cc1OC.Cl` (stereo not shown) [DDH-4C-B, 1-(4-Bromo-2,5-dimethoxyphenyl)but-3-yn-2-amine hydrochloride], in test [1], the “5-HT2A receptor activation” value is reported as “fully activated”. Besides, the EC50 in test [1] (setting [5]) and in test [1] (setting [6]) was 40.7 nM each time.
Turning to `C#CC(N)Cc1ccc2c(c1)OCO2` (stereo not shown) [DDH-BDB, 1-(1,3-Benzodioxol-5-yl)but-3-yn-2-amine hydrochloride], the 50% inhibitory concentration (IC50) in test [2] is > 10000 nM.
For the compound `C#CC(Cc1ccc2c(c1)OCO2)NC` (stereo not shown) [DDH-MBDB, N-Methyl-1-(1,3-benzodioxol-5-yl)but-3-yn-2-amine hydrochloride], in test [2], the IC50 is > 10000 nM.
Consider `C=CC(N)Cc1cc(OC)c(Br)cc1OC.Cl` (stereo not shown) [DH-4C-B, 1-(4-Bromo-2,5-dimethoxyphenyl)but-3-en-2-amine hydrochloride], for which the “5-HT2A receptor activation” value in test [1] (hydrochloride) is “fully activated; also recorded: potent activity”. The EC50 in test [1] (setting [5]) and in test [1] (setting [6]) was 22.1 nM throughout. Also, in test [2], the IC50 was > 10000 nM.
On to `C=CC(N)Cc1ccc2c(c1)OCO2.Cl` (stereo not shown) [DH-BDB, 1-(1,3-Benzodioxol-5-yl) but-3-en-2-amine hydrochloride], for which the “5-HT2A receptor activation” value in test [1] is listed as “weaker activation efficacy”. The compound also registered an IC50 in test [2] of 1000 to 10000 nM.
For the compound `C=CC(Cc1ccc2c(c1)OCO2)NC.Cl` (stereo not shown) [DH-MBDB, N-Methyl-1-(1,3-benzodioxol-5-yl) but-3-en-2-amine hydrochloride], the “5-HT2A receptor activation” value in test [1] is “weaker activation efficacy”. In test [2], this compound registered a concentration for half-maximal inhibition (IC50) of 1000 to 10000 nM.
For the compound `CNC(C)Cc1ccc2c(c1)OCO2` (stereo not shown) [MDMA, 3,4-Methylenedioxymethamphetamine], the IC50 in test [4] is ~1400 nM.
